Values after ≈ are worked out from the molar mass of the structure shown. Active and inactive are the calls of the source. The rule behind the calls is not given here.
Experiments:
Staphylococcus aureus [1] = assay: Antimicrobial activity against methicillin-resistant Staphylococcus aureus ATCC 33591 by Alamar blue method; format: functional, organism-based
Aspergillus fumigatus = assay: Antimicrobial activity against Aspergillus fumigatus ATCC 204305 by Alamar blue method; format: functional, organism-based
[2] = Cytotoxicity against african green monkey Vero cells after 48 hrs by Neutral Red dye assay; format: cell-based; conditions: chlorocebus sabaeus, read-out: TC50
Pichia kudriavzevii [3] = assay: Antimicrobial activity against Candida krusei ATCC 6258 by Alamar blue method; format: functional, organism-based
Nakaseomyces glabratus [4] = assay: Antimicrobial activity against Candida glabrata by Alamar blue method; format: functional, organism-based
Cryptococcus neoformans [5] = assay: Antimicrobial activity against Cryptococcus neoformans ATCC 90113 by Alamar blue method; format: functional, organism-based
[6] = test system: Mycobacterium intracellulare; assay: Antimicrobial activity against Mycobacterium intracellulare ATCC 23068 by Alamar blue method; format: functional, organism-based
Candida albicans = assay: Antimicrobial activity against Candida albicans ATCC 90028 by Alamar blue method; format: functional, organism-based
Staphylococcus aureus [7] = assay: Antimicrobial activity against Staphylococcus aureus ATCC 29213 by Alamar blue method; format: functional, organism-based; conditions: Staphylococcus aureus, ATCC 29213; for IC50: read-out: IC50
Vero = assay: Cytotoxicity against african green monkey Vero cells at 10 ug/ml after 48 hrs by Neutral Red dye assay; format: cell-based; conditions: chlorocebus sabaeus
Nakaseomyces glabratus [8] = assay: Antimicrobial activity against Candida glabrata at 20 ug/ml by Alamar blue method; format: functional, organism-based
Saccharomyces cerevisiae [9] = assay: Antimicrobial activity against Saccharomyces cerevisiae expressing rad52 mutant gene assessed as sensitivity at 50 umol/L by spectrophotometry; format: functional, organism-based
Saccharomyces cerevisiae [10] = assay: Antimicrobial activity against Saccharomyces cerevisiae expressing msh2 mutant gene assessed as increase in sensitivity measured as survival at 20 umol/L by spectrophotometry relative to wild type; format: functional
Saccharomyces cerevisiae [11] = assay: Antimicrobial activity against wild type Saccharomyces cerevisiae assessed as sensitivity at 50 umol/L by spectrophotometry; format: functional, organism-based
[12] = Selectivity index, ratio of TC50 for african green monkey Vero cells to MIC for Aspergillus fumigatus ATCC 204305; format: toxicity, cell-based; conditions: read-out: Selectivity Index
Saccharomyces cerevisiae [13] = assay: Antimicrobial activity against Saccharomyces cerevisiae expressing rad52 mutant gene assessed as increase in sensitivity at 20 umol/L by spectrophotometry relative to wild type; format: functional
Saccharomyces cerevisiae [14] = assay: Antimicrobial activity against Saccharomyces cerevisiae expressing snf2 mutant gene assessed as sensitivity at 50 umol/L by spectrophotometry; format: functional, organism-based
Saccharomyces cerevisiae [15] = assay: Antimicrobial activity against Saccharomyces cerevisiae expressing ydj1 mutant gene assessed as sensitivity at 50 umol/L by spectrophotometry; format: functional, organism-based
Saccharomyces cerevisiae [16] = assay: Antimicrobial activity against Saccharomyces cerevisiae expressing msh2 mutant gene assessed as sensitivity at 20 umol/L by spectrophotometry; format: functional, organism-based
Saccharomyces cerevisiae [17] = assay: Antimicrobial activity against Saccharomyces cerevisiae expressing snf2 mutant gene assessed as increase in sensitivity at 20 umol/L by spectrophotometry relative to wild type; format: functional
Saccharomyces cerevisiae [18] = assay: Antimicrobial activity against Saccharomyces cerevisiae expressing ydj1 mutant gene assessed as sensitivity at 20 umol/L by spectrophotometry; format: functional, organism-based
Saccharomyces cerevisiae [19] = assay: Antimicrobial activity against Saccharomyces cerevisiae expressing msh2 mutant gene assessed as sensitivity at 50 umol/L by spectrophotometry; format: functional, organism-based
[20] = Selectivity index, ratio of TC50 for african green monkey Vero cells to IC50 for Cryptococcus neoformans ATCC 90113; format: toxicity, cell-based; conditions: read-out: Selectivity Index
Saccharomyces cerevisiae [21] = assay: Antimicrobial activity against Saccharomyces cerevisiae expressing msh2 mutant gene assessed as increase in sensitivity at 20 umol/L by spectrophotometry relative to wild type; format: functional
Cryptococcus neoformans [22] = assay: Ratio of amphotericin B IC50 to compound IC50 for Cryptococcus neoformans ATCC 90113 by Alamar blue method; format: functional
Saccharomyces cerevisiae [23] = assay: Antimicrobial activity against Saccharomyces cerevisiae expressing ydj1 mutant gene assessed as increase in sensitivity at 20 umol/L by spectrophotometry relative to wild type; format: functional
Pichia kudriavzevii [24] = assay: Ratio of fluconazole MFC to compound MFC for Candida krusei ATCC 6258 by Alamar blue method; format: functional
Pichia kudriavzevii [25] = assay: Ratio of amphotericin B IC50 to compound IC50 for Candida krusei ATCC 6258 by Alamar blue method; format: functional
Saccharomyces cerevisiae [26] = assay: Antimicrobial activity against wild type Saccharomyces cerevisiae assessed as increase in sensitivity measured as survival at 20 umol/L by spectrophotometry relative to control; format: functional
Nakaseomyces glabratus [27] = assay: Ratio of fluconazole MFC to compound MFC for Candida glabrata by Alamar blue method; format: functional
in vitro = conditions: monkey, Vero cells
Description: Selectivity index, ratio of TC50 for african green monkey Vero cells to IC50 for Aspergillus fumigatus ATCC 204305

| SMILES | IC50 (Staphylococcus aureus [1]) [µg/mL] | MBC (Staphylococcus aureus [1]) [µg/mL] | MIC (Staphylococcus aureus [1]) [µg/mL] | IC50 (Aspergillus fumigatus) [µg/mL] | MFC (Aspergillus fumigatus) [µg/mL] | MIC (Aspergillus fumigatus) [µg/mL] | IC50 (Pichia kudriavzevii [3]) [µg/mL] | MFC (Pichia kudriavzevii [3]) [µg/mL] | MIC (Pichia kudriavzevii [3]) [µg/mL] | IC50 (Nakaseomyces glabratus [4]) [µg/mL] | MFC (Nakaseomyces glabratus [4]) | MIC (Nakaseomyces glabratus [4]) | MFC (Cryptococcus neoformans [5]) [µg/mL] | MIC (Cryptococcus neoformans [5]) [µg/mL] | IC50 [6] [µg/mL] | MBC [6] [µg/mL] | MIC [6] [µg/mL] | IC50 (Candida albicans) [µg/mL] | MFC (Candida albicans) | MIC (Candida albicans) | also measured |
| --- | --- | --- | --- | --- | --- | --- | --- | --- | --- | --- | --- | --- | --- | --- | --- | --- | --- | --- | --- | --- | --- |
| Cc1ccc(CSc2cc3ccccc3[n+](CCCCCC3CCCCC3)c2)cc1.[I-] | 0.49 | 2.5 | 1.3 | 4.5 | 10 | 10 | 0.27 | 1.3 | 1.3 | 3.1 | 5 µg/mL | 5 µg/mL | 0.31 | 0.31 | 7.5 | 10 | 10 | 1.4 | 5 µg/mL | 2.5 µg/mL | CC50 at 48 h [2]: 6.8 µg/mL; MBC (Staphylococcus aureus [7]): 2.5 µg/mL; MIC (Staphylococcus aureus [7]): 0.63 µg/mL; IC50 (Staphylococcus aureus [7]): 0.39 µg/mL |
| OC(Cn1cncn1)(Cn1cncn1)c1ccc(F)cc1F [FLUCONAZOLE] |  |  |  |  |  |  | 27 (≈ 88.2 µM) | 50 (≈ 163 µM) | 50 (≈ 163 µM) | 27 (≈ 88.2 µM) | inactive | inactive | 13 (≈ 42.4 µM) | 6.3 (≈ 20.6 µM) |  |  |  | 0.12 (≈ 0.392 µM) | inactive | inactive | Activity (Vero): Non-toxic; IC50 (Cryptococcus neoformans [5]): 0.21 µg/mL (≈ 0.686 µM); Activity (Nakaseomyces glabratus [8]): inactive |
| Cc1cccc(CSc2cc3ccccc3[n+](CCCCCC3CCCCC3)c2)c1.[I-] | 0.72 | 2.5 | 1.3 | 5.8 | 10 | 10 | 0.67 | 2.5 | 2.5 | 3.3 | 10 µg/mL | 5 µg/mL | 0.63 | 0.63 | 7.2 | 10 | 10 | 2 | 5 µg/mL | 5 µg/mL | CC50 at 48 h [2]: 5 µg/mL; MBC (Staphylococcus aureus [7]): 2.5 µg/mL; MIC (Staphylococcus aureus [7]): 1.3 µg/mL; IC50 (Staphylococcus aureus [7]): 0.64 µg/mL |
| FC(F)(F)c1ccc(CSc2cc3ccccc3[n+](CCCCCC3CCCCC3)c2)cc1.[I-] | 0.36 | 1.3 | 0.63 | 2.9 | 5 | 5 | 0.46 | 1.3 | 1.3 | 2.7 | 5 µg/mL | 5 µg/mL | 0.31 | 0.31 | 4.7 | 10 | 10 | 1.4 | 2.5 µg/mL | 2.5 µg/mL | CC50 at 48 h [2]: 7.9 µg/mL; MBC (Staphylococcus aureus [7]): 1.3 µg/mL; MIC (Staphylococcus aureus [7]): 0.63 µg/mL; IC50 (Staphylococcus aureus [7]): 0.28 µg/mL |
| C[n+]1c2ccccc2cc2[n-]c3ccccc3c21 [CRYPTOLEPINE] |  |  |  |  |  |  |  |  |  |  |  |  | > 25 | 12.5 (≈ 53.8 µM) |  |  |  |  |  |  | Activity (Saccharomyces cerevisiae [9]): Active; Activity (Saccharomyces cerevisiae [10]): 29%; Activity (Saccharomyces cerevisiae [11]): Active; selectivity ratio [12]: < 0.13; fold change (FC) (Saccharomyces cerevisiae [13]): 3.5; Activity (Saccharomyces cerevisiae [14]): Active; Activity (Saccharomyces cerevisiae [15]): Active; Activity (Saccharomyces cerevisiae [16]): inactive; fold change (FC) (Saccharomyces cerevisiae [17]): 1.7; Activity (Saccharomyces cerevisiae [18]): inactive; Activity (Saccharomyces cerevisiae [19]): Active |
| COc1cccc2c1C(=O)c1c(O)c3c(c(O)c1C2=O)C[C@@](O)(C(=O)CO)C[C@@H]3O[C@H]1C[C@H](N)[C@H](O)[C@H](C)O1 [DOXORUBICIN] |  |  |  |  |  |  |  |  |  |  |  |  |  |  |  |  |  |  |  |  | fold change (FC) (Saccharomyces cerevisiae [13]): >100 |
| Clc1ccc(CSc2cc3ccccc3[n+](CCCCCC3CCCCC3)c2)cc1.[I-] | 0.06 | 0.31 | 0.16 | 0.69 | 1.3 | 1.3 | 0.07 | 0.16 | 0.16 | 0.44 | 1.3 µg/mL | 1.3 µg/mL | 0.08 | 0.08 | 1.6 | 2.5 | 2.5 | 0.33 | 0.63 µg/mL | 0.63 µg/mL | selectivity ratio [20]: 26; fold change (FC) (Saccharomyces cerevisiae [21]): 1.1; Ratio IC50 (Cryptococcus neoformans [22]): 4; fold change (FC) (Saccharomyces cerevisiae [13]): 2.9; fold change (FC) (Saccharomyces cerevisiae [23]): 7.5; Ratio IC50 (Pichia kudriavzevii [24]): 310; CC50 at 48 h [2]: 1.3 µg/mL; fold change (FC) (Saccharomyces cerevisiae [17]): 10; Ratio IC50 (Pichia kudriavzevii [25]): 3; Activity (Saccharomyces cerevisiae [26]): 31%; MBC (Staphylococcus aureus [7]): 0.31 µg/mL; MIC (Staphylococcus aureus [7]): 0.16 µg/mL; IC50 (Staphylococcus aureus [7]): 0.05 µg/mL |
| [I-].c1ccc2cc(Sc3cc4ccccc4[n+](CCCCCC4CCCCC4)c3)ccc2c1 | 0.35 | 2.5 | 0.63 | 1.2 | 2.5 | 2.5 | 0.09 | 0.63 | 0.63 | 0.87 | 2.5 µg/mL | 2.5 µg/mL | 0.16 | 0.16 | 4.2 | 10 | 5 | 0.42 | 2.5 µg/mL | 1.3 µg/mL | selectivity ratio [20]: > 111; Ratio (Pichia kudriavzevii [24]): 79; IC50 (Cryptococcus neoformans [5]): 0.09 µg/mL; Ratio (Nakaseomyces glabratus [27]): 79; MBC (Staphylococcus aureus [7]): 2.5 µg/mL; MIC (Staphylococcus aureus [7]): 0.63 µg/mL; IC50 (Staphylococcus aureus [7]): 0.34 µg/mL |
| C[C@@H]1[C@H](O)[C@@H](C)/C=C/C=C/C=C/C=C/C=C/C=C/C=C/[C@H](O[C@@H]2O[C@H](C)[C@@H](O)[C@H](N)[C@@H]2O)C[C@@H]2O[C@](O)(C[C@@H](O)C[C@@H](O)[C@H](O)CC[C@@H](O)C[C@@H](O)CC(=O)O[C@H]1C)C[C@H](O)[C@H]2C(=O)O [AMPHOTERICIN B] |  |  |  |  | 5 (≈ 5.41 µM) | 1.3 (≈ 1.41 µM) | 0.22 (≈ 0.238 µM) | 1.3 (≈ 1.41 µM) | 0.62 (≈ 0.671 µM) | 0.22 (≈ 0.238 µM) | 1.3 µg/mL (≈ 1.41 µM) | 0.63 µg/mL (≈ 0.682 µM) | 0.63 (≈ 0.682 µM) | 0.63 (≈ 0.682 µM) |  |  |  |  | 1.3 µg/mL (≈ 1.41 µM) | 0.62 µg/mL (≈ 0.671 µM) | IC50 (Cryptococcus neoformans [5]): 0.2 µg/mL (≈ 0.216 µM); selectivity ratio (in vitro): 38 |

— ChEMBL document CHEMBL3085759, “Structure-activity relationship (SAR) and preliminary mode of action studies of 3-substituted benzylthioquinolinium iodide as anti-opportunistic infection agents” (Eur J Med Chem, 2013)
